Assay results as given in US20210122730A1, “GLUCOCORTICOID RECEPTOR MODULATORS” (ORIC Pharmaceuticals, Inc., priority 2017, published 2021).
pIC50: −log10 of the molar value.

Biological target: T1, GR (Homo sapiens, UniProt P04150)
T1 construct: expressed in transfected cells; host or cells: CHO-K1
T1 sequence (P04150 1-777): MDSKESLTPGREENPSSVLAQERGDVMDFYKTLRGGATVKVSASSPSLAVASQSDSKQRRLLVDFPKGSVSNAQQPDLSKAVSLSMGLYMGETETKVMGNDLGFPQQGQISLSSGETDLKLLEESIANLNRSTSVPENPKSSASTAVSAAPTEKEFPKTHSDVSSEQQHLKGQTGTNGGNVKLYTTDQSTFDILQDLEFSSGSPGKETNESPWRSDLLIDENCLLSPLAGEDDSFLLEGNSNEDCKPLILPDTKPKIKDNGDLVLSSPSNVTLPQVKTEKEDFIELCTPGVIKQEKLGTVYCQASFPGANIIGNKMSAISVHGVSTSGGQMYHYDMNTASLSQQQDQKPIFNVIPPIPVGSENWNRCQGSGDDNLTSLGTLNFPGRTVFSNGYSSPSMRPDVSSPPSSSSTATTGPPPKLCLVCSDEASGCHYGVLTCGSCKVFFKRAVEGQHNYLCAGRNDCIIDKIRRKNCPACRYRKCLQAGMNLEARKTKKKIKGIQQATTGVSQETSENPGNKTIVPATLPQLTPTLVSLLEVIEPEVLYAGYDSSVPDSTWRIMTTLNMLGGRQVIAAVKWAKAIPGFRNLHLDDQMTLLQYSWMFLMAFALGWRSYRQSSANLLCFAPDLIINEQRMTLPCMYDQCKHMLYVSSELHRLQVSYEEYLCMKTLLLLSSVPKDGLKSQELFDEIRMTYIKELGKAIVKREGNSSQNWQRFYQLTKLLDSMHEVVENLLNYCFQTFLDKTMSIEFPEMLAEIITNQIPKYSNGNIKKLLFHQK
Experiment: In Vitro GR Luciferase Reporter Assay (antagonist mode, CHO-K1-GR-MMTV-Luc reporter cells)
Assay type: cell-based
Conditions: antagonist mode, 10 nM Dexamethasone
In short: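 CHO-K1-GR-MMTV-Luc cells in phenol red-free DMEM with 10% CSS, stimulated with 10 nM dexamethasone (final) and treated with 8-point 1:5 compound dilutions for about 18-24 h at 37° C. Luciferase measured by OneGlo luminescence; IC50 derived for inhibition of GR activity.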

Row | SMILES | pIC50
1 | Cn1cc(S(=O)(=O)N(CC(F)(F)F)[C@H]2CCC3=Cc4c(cnn4-c4ccc(F)cc4)C[C@]3(C(=O)c3cc(C(F)(F)F)ccn3)C2)nn1 [Example 318, N-((4aS,6S)-1-(4-fluorophenyl)-4a-(4-(trifluoromethyl)picolinoyl)-4,4a,5,6,7,8-hexahydro-1H-benzo[f]indazol-6-yl)-1-methyl-N-(2,2,2-trifluoroethyl)-1H-1,2,3-triazole-4-sulfonamide] | ≥ 7.00
2 | CC(C)N([C@H]1CCC2=Cc3c(cnn3-c3ccc(F)cc3)C[C@]2(C(=O)c2cc(Cl)ccn2)C1)S(=O)(=O)c1ccc(Cl)nc1 [Example 323, 6-chloro-N-((4aS,6S)-4a-(4-chloropicolinoyl)-1-(4-fluorophenyl)-4,4a,5,6,7,8-hexahydro-1H-benzo[f]indazol-6-yl)-N-isopropylpyridine-3-sulfonamide] | ≥ 7.00
3 | Cc1nc(S(=O)(=O)N(C2CC2)[C@H]2CCC3=Cc4c(cnn4-c4ccc(F)cc4)C[C@]3(C(=O)c3ncc(C(F)(F)F)s3)C2)cn1C [Example 336, N-cyclopropyl-N-((4aS,6S)-1-(4-fluorophenyl)-4a-(5-(trifluoromethyl)thiazole-2-carbonyl)-4,4a,5,6,7,8-hexahydro-1H-benzo[f]indazol-6-yl)-1,2-dimethyl-1H-imidazole-4-sulfonamide] | ≥ 7.00
4 | Cn1cc(S(=O)(=O)CC2CCC3=Cc4c(cnn4-c4ccc(F)cc4)C[C@]3(C(=O)c3ccc(C(F)(F)F)cn3)C2)cn1 (stereo partly drawn) [Example 340, ((4aR)-1-(4-fluorophenyl)-6-(((1-methyl-1H-pyrazol-4-yl)sulfonyl)methyl)-1,4,5,6,7,8-hexahydro-4aH-benzo[f]indazol-4a-yl)(5-(trifluoromethyl)pyridin-2-yl)methanone] | ≥ 7.00
5 | C[C@]1(O)C[C@@H](N([C@H]2CCC3=Cc4c(cnn4-c4ccc(F)cc4)C[C@]3(C(=O)c3cc(F)ccn3)C2)S(=O)(=O)c2ccc(F)cc2)C1 [Example 343, 4-fluoro-N-((4aS,6S)-1-(4-fluorophenyl)-4a-(4-fluoropicolinoyl)-4,4a,5,6,7,8-hexahydro-1H-benzo[f]indazol-6-yl)-N-((1s,3R)-3-hydroxy-3-methylcyclobutyl)benzenesulfon-amide] | ≥ 7.00
6 | Cn1ccc(S(=O)(=O)N(CC(F)F)[C@H]2CCC3=Cc4c(cnn4-c4ccc(F)cc4)C[C@]3(C(=O)c3cc(Cl)ccn3)C2)n1 [Example 345, N-((4aS,6S)-4a-(4-chloropicolinoyl)-1-(4-fluorophenyl)-4,4a,5,6,7,8-hexahydro-1H-benzo[f]indazol-6-yl)-N-(2,2-difluoroethyl)-1-methyl-1H-pyrazole-3-sulfonamide] | ≥ 7.00
7 | O=C(c1cc(F)ccn1)[C@]12Cc3cnn(-c4ccc(F)cc4)c3C=C1CC[C@H](N(CC(F)F)S(=O)(=O)c1ccc(Cl)nc1)C2 [Example 351, 6-chloro-N-(2,2-difluoroethyl)-N-((4aS,6S)-1-(4-fluorophenyl)-4a-(4-fluoropicolinoyl)-4,4a,5,6,7,8-hexahydro-1H-benzo[f]indazol-6-yl)pyridine-3-sulfonamide] | ≥ 7.00
8 | O=C(c1cc(Cl)ccn1)[C@]12Cc3cnn(-c4ccc(F)cc4)c3C=C1CC[C@H](N(CC(F)F)S(=O)(=O)c1ccc(Cl)nc1)C2 [Example 352, 6-chloro-N-((4aS,6S)-4a-(4-chloropicolinoyl)-1-(4-fluorophenyl)-4,4a,5,6,7,8-hexahydro-1H-benzo[f]indazol-6-yl)-N-(2,2-difluoroethyl)pyridine-3-sulfonamide] | ≥ 7.00
9 | Cn1ccc(S(=O)(=O)CC2CCC3=Cc4c(cnn4-c4ccc(F)cc4)C[C@]3(C(=O)c3cc(C(F)(F)F)ccn3)C2)n1 (stereo partly drawn) [Example 353, ((4aR)-1-(4-fluorophenyl)-6-(((1-methyl-1H-pyrazol-3-yl)sulfonyl)methyl)-1,4,5,6,7,8-hexahydro-4aH-benzo[f]indazol-4a-yl)(4-(trifluoromethyl)pyridin-2-yl)methanone] | ≥ 7.00
10 | Cn1ccc(S(=O)(=O)CC2CCC3=Cc4c(cnn4-c4ccc(F)cc4)C[C@]3(C(=O)c3ccc(C(F)(F)F)cn3)C2)n1 (stereo partly drawn) [Example 360, ((4aR)-1-(4-fluorophenyl)-6-(((1-methyl-1H-pyrazol-3-yl)sulfonyl)methyl)-1,4,5,6,7,8-hexahydro-4aH-benzo[f]indazol-4a-yl)(5-(trifluoromethyl)pyridin-2-yl)methanone] | ≥ 7.00
11 | Cn1ccc(S(=O)(=O)CC2CCC3=Cc4c(cnn4-c4ccc(F)cc4)C[C@]3(C(=O)c3ncc(C(F)(F)F)s3)C2)n1 (stereo partly drawn) [Example 361, ((4aR)-1-(4-fluorophenyl)-6-(((1-methyl-1H-pyrazol-3-yl)sulfonyl)methyl)-1,4,5,6,7,8-hexahydro-4aH-benzo[f]indazol-4a-yl)(5-(trifluoromethyl)thiazol-2-yl)methanone] | ≥ 7.00
12 | Cn1ccc(S(=O)(=O)CC2CCC3=Cc4c(cnn4-c4ccc(F)cc4)C[C@]3(C(=O)c3cc(F)ccn3)C2)n1 (stereo partly drawn) [Example 362, ((4aR)-1-(4-fluorophenyl)-6-(((1-methyl-1H-pyrazol-3-yl)sulfonyl)methyl)-1,4,5,6,7,8-hexahydro-4aH-benzo[f]indazol-4a-yl)(4-fluoropyridin-2-yl)methanone] | ≥ 7.00
13 | Cn1ccc(S(=O)(=O)CC2CCC3=Cc4c(cnn4-c4ccc(F)cc4)C[C@]3(C(=O)c3cc(Cl)ccn3)C2)n1 (stereo partly drawn) [Example 364, (4-chloropyridin-2-yl)((4aR)-1-(4-fluorophenyl)-6-(((1-methyl-1H-pyrazol-3-yl)sulfonyl)methyl)-1,4,5,6,7,8-hexahydro-4aH-benzo[f]indazol-4a-yl)methanone] | ≥ 7.00
14 | Cn1cnc(S(=O)(=O)[C@H]2CCC3=Cc4c(cnn4-c4ccc(F)cc4)C[C@]3(C(=O)c3cc(C(F)(F)F)ccn3)C2)n1 [Example 365, ((4aS,6S)-1-(4-fluorophenyl)-6-((1-methyl-1H-1,2,4-triazol-3-yl)sulfonyl)-1,4,5,6,7,8-hexahydro-4aH-benzo[f]indazol-4a-yl)(4-(trifluoromethyl)pyridin-2-yl)methanone] | ≥ 7.00
15 | Cn1ccc(S(=O)(=O)N([C@H]2CCC3=Cc4c(cnn4-c4ccc(F)cc4)C[C@]3(C(=O)c3cc(C(F)(F)F)ccn3)C2)[C@H]2C[C@@](O)(C(F)(F)F)C2)n1 [Example 369, N-((4aS,6S)-1-(4-fluorophenyl)-4a-(4-(trifluoromethyl)picolinoyl)-4,4a,5,6,7,8-hexahydro-1H-benzo[f]indazol-6-yl)-N-((1r,3S)-3-hydroxy-3-(trifluoromethyl)cyclobutyl)-1-methyl-1H-pyrazole-3-sulfonamide] | ≥ 7.00
16 | O=C(c1cc(Cl)ccn1)[C@]12Cc3cnn(-c4ccc(F)cc4)c3C=C1CC[C@H](N(C1CC(F)(F)C1)S(=O)(=O)c1ccc(Cl)nc1)C2 [Example 370, 6-chloro-N-((4aS,6S)-4a-(4-chloropicolinoyl)-1-(4-fluorophenyl)-4,4a,5,6,7,8-hexahydro-1H-benzo[f]indazol-6-yl)-N-(3,3-difluorocyclobutyl)pyridine-3-sulfonamide] | ≥ 7.00
17 | COCCN([C@H]1CCC2=Cc3c(cnn3-c3ccc(F)cc3)C[C@]2(C(=O)c2ncc(C(F)(F)F)s2)C1)S(=O)(=O)c1ccc(F)cc1 [Example 372, 4-fluoro-N-((4aS,6S)-1-(4-fluorophenyl)-4a-(5-(trifluoromethyl)thiazole-2-carbonyl)-4,4a,5,6,7,8-hexahydro-1H-benzo[f]indazol-6-yl)-N-(2-methoxyethyl)benzenesulfon-amide] | ≥ 7.00
18 | Cn1cc(S(=O)(=O)CC2CCC3=Cc4c(cnn4-c4ccc(F)cc4)C[C@]3(C(=O)c3ncc(C(F)(F)F)s3)C2)cn1 (stereo partly drawn) [Example 375, ((4aR)-1-(4-fluorophenyl)-6-(((1-methyl-1H-pyrazol-4-yl)sulfonyl)methyl)-1,4,5,6,7,8-hexahydro-4aH-benzo[f]indazol-4a-yl)(5-(trifluoromethyl)thiazol-2-yl)methanone] | ≥ 7.00
19 | CCN([C@H]1CCC2=Cc3c(cnn3-c3ccc(F)cc3)C[C@]2(C(=O)c2ncc(C(F)(F)F)s2)C1)S(=O)(=O)c1cncn1C [Example 376, N-ethyl-N-((4aS,6S)-1-(4-fluorophenyl)-4a-(5-(trifluoromethyl)thiazole-2-carbonyl)-4,4a,5,6,7,8-hexahydro-1H-benzo[f]indazol-6-yl)-1-methyl-1H-imidazole-5-sulfonamide] | ≥ 7.00
20 | Cn1cnc(S(=O)(=O)N(CC(F)(F)F)[C@H]2CCC3=Cc4c(cnn4-c4ccc(F)cc4)C[C@]3(C(=O)c3cc(C(F)(F)F)ccn3)C2)n1 [Example 378, N-((4aS,6S)-1-(4-fluorophenyl)-4a-(4-(trifluoromethyl)picolinoyl)-4,4a,5,6,7,8-hexahydro-1H-benzo[f]indazol-6-yl)-1-methyl-N-(2,2,2-trifluoroethyl)-1H-1,2,4-triazole-3-sulfonamide] | ≥ 7.00
